Experimental data reported in US20080025966A1, “Methods And Compositions For The Treatment Of Gastrointestinal disorders” (priority 2004, published 2008).
No end group written: not given here.

Columns and labels:
[1] = test system: human HT-29/B6 cells; details: cited from earlier work
[2] = biological target: T1, chymotrypsin (Bos taurus, UniProt P00766); test: Guanylin degradation assay (chymotrypsin digestion) read out in the T84 cGMP assay; assay type: biochemical, bovine; details: T84 cells, FIG. 1
T1 construct: purchased Sigma C6423
Description: Since guanylin is susceptible to digestion by chymotrypsin, chymotrypsin activity can be assayed based on guanylin cleavage. […] From this stock, six (6) 500 μl aliquots were prepared in 2 ml Eppendorf tubes and labeled “Control”, “T0”, “T15”, “T30”, “T60”, and “T180”, with “T_” representing timepoints, in minutes. 5 μl of a 10 mM chymostatin (Sigma, C7268) stock (5 mg of chymostatin resuspended in 824 μl of DMSO) was added to the “Control” samples and all samples were incubated for 5 minutes at 30° C. Chymostatin inhibits chymotrypsin activity and this sample served as a negative control. Next, 20 μl of a chymotrypsin (Sigma, C6423) enzyme solution (0.01 mg/ml bovine chymotrypsin enzyme in 1 mM HCl, 2 mM Calcium Chloride) were added to the samples and mixed by inversion. Samples are incubated at 30° C. […] Determination of sensitivity to digestion by chymotrypsin was determined by LCMS analysis and by in vitro activity in the T84 cGMP assays described below.
The ability of guanylin to activate the intestinal GC-C receptor was assessed in an assay employing the T84 human colon carcinoma cell line (American Type Culture Collection (Bethesda, Md.). For the assays cells were grown to confluency in 24-well culture plates with a 1:1 mixture of Ham's F12 medium and Dulbecco's modified Eagle's medium (DMEM), supplemented with 5% fetal calf serum and were used at between passages 54 and 60. […]

[3] = test system: guanylin-induced intestinal fluid secretion; details: suckling mouse model; chymostatin given with guanylin; cited from earlier work
[4] = test system: chymotrypsin; details: cited from earlier work

For `Cc1c(O)cccc1C(=O)N[C@@H](CSc1ccccc1)[C@H](O)CN1C[C@H]2CCCC[C@H]2C[C@H]1C(=O)NC(C)(C)C` [nelfinavir, Nelfinavir], the “effect on the epithelial barrier” value [1] is listed as “impair the epithelial barrier”.
In the case of `CC(C)C[C@H](NC(=O)[C@@H](NC(=O)N[C@@H](Cc1ccccc1)C(=O)O)C1CCNC(=N)N1)C(=O)N[C@H](C=O)Cc1ccccc1` (stereo partly shown) [chymostatin], the “guanylin stimulated cGMP activity with chymotrypsin inhibitor present” value ([2]; chymostatin added before chymotrypsin digestion of guanylin) is listed as “retained”, the “guanylin-induced intestinal fluid secretion” value [3] is listed as “required in order to observe guanylin-induced intestinal fluid secretion” and the “chymotrypsin-mediated inactivation of guanylin” value [4] is listed as “can be prevented”.
In the case of `CC(C)c1nc(CN(C)C(=O)N[C@H](C(=O)N[C@@H](Cc2ccccc2)C[C@H](O)[C@H](Cc2ccccc2)NC(=O)OCc2cncs2)C(C)C)cs1` [ritonavir], the “effect on the epithelial barrier” value [1] is listed as “impair the epithelial barrier”.
In the case of `CC(C)(C)NC(=O)[C@@H]1C[C@@H]2CCCC[C@@H]2CN1C[C@@H](O)[C@H](Cc1ccccc1)NC(=O)[C@H](CC(N)=O)NC(=O)c1ccc2ccccc2n1` [saquinavir, Saquinavir], the “effect on the epithelial barrier” value [1] is listed as “impair the epithelial barrier”.
For “guanylin: intestinal peptide of 15 amino acids, agonist of the guanylate cyclase (GC-C) receptor; Sigma G-116 (PGTCEICAYAACTGC; ends and bridges not checked; cysteine pairing not given here; UniProt Q02747 101-115, looked up)”, the “guanylin stimulated cGMP activity” value ([2]; guanylin digested with chymotrypsin at 30° C., timepoints 0-180 min, no chymostatin) was “decreases over time”.
